Patent publication US9718771B2, “Aniline derivative, pharmaceutical composition containing same, and use thereof” (Kissei Pharmaceutical Co., Ltd., priority 2014, dated 2017)

Tested on: EAE model
Test: Drug efficiency evaluation in experimental autoimmune encephalomyelitis (EAE) model
Assay type: in vivo
Conditions: DA rats, oral twice a day, 15 mg/kg, day 0 to day 13; mean ± standard error
Method: The Drug Efficiency Evaluation in Experimental Autoimmune Encephalomyelitis (EAE) Model
An EAE model (experimental autoimmune encephalomyelitis, hereinafter referred to as EAE), which is widely used as an animal model reflecting the pathological condition of human multiple sclerosis was prepared using DA rats (Japan SLC, 8 to 9-week-old in use) as described below, and the effect of test compound was confirmed.
Firstly, the emulsion for immunization was prepared by the method described below. After rats were sacrificed by exsanguination from the carotid artery under anesthesia of isoflurane, two spinal cords and a brain were collected. […]
The EAE score was evaluated daily to day 13 as day 0 when DA rats were immunized. The EAE score was evaluated as 0-5 points: 0 points: no symptoms, 1 point: walkable straight with normal our limbs but complete loss of tail tonus, 2 points: slight paralysis of a limb (especially hind limbs) and walkable wobbly, 3 points: full paralysis of two limbs (especially hind limbs) and walkable with a limp, 4 points: tetraplegia, moribund or abasia, 5 points: dead.
The area under the curve was calculated based on the variation per day of EAE score during evaluation periods from immunization day 0 to day 13, and used as an index for effects of test compounds.

With `CCN(c1ccc(Cl)c(C(F)(F)F)c1)C(C)c1ccc(C)c(CN2CC(C(=O)O)C2)c1` (stereo not shown) [Compound 2-7, 1-(5-{1-[(4-Chloro-3-trifluoromethylphenyl)(ethyl)amino]ethyl}-2-methylbenzyl)-azetidine-3-carboxylic acid] the “Area under the curve of EAE score” value was 6.1 ± 1.6.
